From patent publication US8309718B2, “4-pyrazolyl-N-arylpyrimidin-2-amines and 4-pyrazolyl-N-heteroarylpyrimidin-2-amines as janus kinase inhibitors” (Incyte Corporation, priority 2007, dated 2012)

The compounds below were run against T1, human JAK2 (Homo sapiens, UniProt O60674) (assay: In vitro JAK kinase assay (HTRF, phosphorylation of biotinylated peptide)). Settings: catalytic domain a.a. 828-1132, 30 μM ATP, 500 nM peptide, room temperature 1 hr; read-out: JAK-2 IC50.
T1 construct: JAK2 (a.a. 828-1132); His tag (N); made in house; host or cells: insect cells (baculovirus)
T1 sequence (O60674 828-1132): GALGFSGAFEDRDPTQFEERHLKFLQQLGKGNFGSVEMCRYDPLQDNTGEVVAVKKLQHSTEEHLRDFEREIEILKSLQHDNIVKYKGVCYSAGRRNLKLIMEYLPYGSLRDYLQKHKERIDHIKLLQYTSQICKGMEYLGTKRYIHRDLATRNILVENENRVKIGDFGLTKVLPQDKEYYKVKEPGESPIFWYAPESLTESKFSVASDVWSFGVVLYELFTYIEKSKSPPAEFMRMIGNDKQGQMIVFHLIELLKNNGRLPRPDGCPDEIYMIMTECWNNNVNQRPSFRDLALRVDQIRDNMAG
Type: biochemical
Procedure, shortened: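 His-tagged human JAK2 catalytic domain (a.a. 828-1132), baculovirus/insect-cell expressed; phosphorylation of 500 nM biotinylated peptide at 30 μM ATP in 50 mM Tris pH 7.8, 100 mM NaCl, 5 mM DTT, 0.01% BSA. 1 h at room temperature, EDTA stop, HTRF read (Eu-Py20/SA-APC); IC50.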

IC50, < 100 nM:
CN(C(=O)c1ccc(Nc2nccc(-c3cnn(C(CC#N)C4CCCC4)c3)n2)cc1)[C@H]1CC[C@@H](O)CC1 (mixture of isomers) [Example 217, 4-(4-(1-(2-cyano-1-cyclopentylethyl)-1H-pyrazol-4-yl)pyrimidin-2-ylamino)-N-(cis-4-hydroxycyclohexyl)-N-methylbenzamide]
CN(C(=O)c1ccc(Nc2nccc(-c3cnn(C(CC#N)C4CCCC4)c3)n2)cc1)C1CCOCC1 (racemic) [Example 218, 4-(4-(1-(2-cyano-1-cyclopentylethyl)-1H-pyrazol-4-yl)pyrimidin-2-ylamino)-N-methyl-N-(tetrahydro-2H-pyran-4-yl)benzamide]
COC1CCN(C(=O)c2ccc(Nc3nccc(-c4cnn(C(CC#N)C5CCCC5)c4)n3)cc2)CC1 (racemic) [Example 221, 3-cyclopentyl-3-(4-(2-(4-(4-methoxypiperidine-1-carbonyl)phenylamino)pyrimidin-4-yl)-1H-pyrazol-1-yl)propanenitrile]
N#CCC(C1CCCC1)n1cc(-c2ccnc(Nc3ccc(C(=O)N[C@H]4CC[C@@H](O)CC4)cc3)n2)cn1 (mixture of isomers) [Example 223, 4-(4-(1-(2-cyano-1-cyclopentylethyl)-1H-pyrazol-4-yl)pyrimidin-2-ylamino)-N-(cis-4-hydroxycyclohexyl)benzamide]
CC(=O)N1CCN(C(=O)c2ccc(Nc3nccc(-c4cnn(C(CC#N)C5CCCC5)c4)n3)cc2)CC1 (racemic) [Example 224, 3-(4-(2-(4-(4-acetylpiperazine-1-carbonyl)phenylamino)pyrimidin-4-yl)-1H-pyrazol-1-yl)-3-cyclopentylpropanenitrile]
CN1CCC(NC(=O)c2ccc(Nc3nccc(-c4cnn(C(CC#N)C5CCCC5)c4)n3)cc2)CC1 (racemic) [Example 227, 4-(4-(1-(2-cyano-1-cyclopentylethyl)-1H-pyrazol-4-yl)pyrimidin-2-ylamino)-N-(1-methylpiperidin-4-yl)benzamide]
N#CCC(C1CCCC1)n1cc(-c2ccnc(Nc3ccc(C(=O)N4CCC5(CC4)CNC(=O)C5)cc3)n2)cn1 (racemic) [Example 228, 3-cyclopentyl-3-(4-(2-(4-(3-oxo-2,8-diazaspiro[4.5]decane-8-carbonyl)phenylamino)pyrimidin-4-yl)-1H-pyrazol-1-yl)propanenitrile]
CCOC(=O)N1CCC(NC(=O)c2ccc(Nc3nccc(-c4cnn(C(CC#N)C5CCCC5)c4)n3)cc2)CC1 (racemic) [Example 231, Ethyl 4-(4-(4-(1-(2-cyano-1-cyclopentylethyl)-1H-pyrazol-4-yl)pyrimidin-2-ylamino)benzamido)piperidine-1-carboxylate]
CN(C)C(=O)C1CCN(C(=O)c2ccc(Nc3nccc(-c4cnn(C(CC#N)C5CCCC5)c4)n3)cc2)CC1 (racemic) [Example 234, 1-(4-(4-(1-(2-cyano-1-cyclopentylethyl)-1H-pyrazol-4-yl)pyrimidin-2-ylamino)benzoyl)-N,N-dimethylpiperidine-4-carboxamide]
CN1CCN(CC(=O)Nc2cccc(Nc3nccc(-c4cnn(C(CC#N)C5CCCC5)c4)n3)c2)CC1 (racemic) [Example 236, N-(3-(4-(1-(2-cyano-1-cyclopentylethyl)-1H-pyrazol-4-yl)pyrimidin-2-ylamino)phenyl)-2-(4-methylpiperazin-1-yl)acetamide]
N#CCC(C1CCCC1)n1cc(-c2ccnc(Nc3cccc(NC(=O)CN4CCNC(=O)C4)c3)n2)cn1 (racemic) [Example 238, N-(3-(4-(1-(2-cyano-1-cyclopentylethyl)-1H-pyrazol-4-yl)pyrimidin-2-ylamino)phenyl)-2-(3-oxopiperazin-1-yl)acetamide]
N#CCC(C1CCCC1)n1cc(-c2ccnc(Nc3cccc(NC(=O)CN4CCC(O)CC4)c3)n2)cn1 (racemic) [Example 239, N-(3-(4-(1-(2-cyano-1-cyclopentylethyl)-1H-pyrazol-4-yl)pyrimidin-2-ylamino)phenyl)-2-(4-hydroxypiperidin-1-yl)acetamide]
N#CCC(C1CCCC1)n1cc(-c2ccnc(Nc3cccc(NC(=O)CN4CCN(CCO)CC4)c3)n2)cn1 (racemic) [Example 240, N-(3-(4-(1-(2-cyano-1-cyclopentylethyl)-1H-pyrazol-4-yl)pyrimidin-2-ylamino)phenyl)-2-(4-(2-hydroxyethyl)piperazin-1-yl)acetamide]
N#CCC(C1CCCC1)n1cc(-c2ccnc(Nc3cccc(NC(=O)CNCC4CC4)c3)n2)cn1 (racemic) [Example 241, N-(3-(4-(1-(2-cyano-1-cyclopentylethyl)-1H-pyrazol-4-yl)pyrimidin-2-ylamino)phenyl)-2-(cyclopropylmethylamino)acetamide]
N#CCC(C1CCCC1)n1cc(-c2ccnc(Nc3cccc(NC(=O)CN4CCOCC4)c3)n2)cn1 (racemic) [Example 242, N-(3-(4-(1-(2-cyano-1-cyclopentylethyl)-1H-pyrazol-4-yl)pyrimidin-2-ylamino)phenyl)-2-morpholinoacetamide]
CCNCC(=O)Nc1cccc(Nc2nccc(-c3cnn(C(CC#N)C4CCCC4)c3)n2)c1 (racemic) [Example 243, N-(3-(4-(1-(2-cyano-1-cyclopentylethyl)-1H-pyrazol-4-yl)pyrimidin-2-ylamino)phenyl)-2-(ethylamino)acetamide]
N#CCC(C1CC1)n1cc(-c2ccnc(Nc3ccc(C(=O)N4CCC(O)CC4)cc3)n2)cn1 (racemic) [Example 251, 3-cyclopropyl-3-(4-(2-(4-(4-hydroxypiperidine-1-carbonyl)phenylamino)pyrimidin-4-yl)-1H-pyrazol-1-yl)propanenitrile]
N#CCC(C1CC1)n1cc(-c2ccnc(Nc3ccc(C(=O)N4[C@@H]5CC[C@H]4C[C@@H](O)C5)cc3)n2)cn1 (mixture of isomers) [Example 252, 3-cyclopropyl-3-(4-(2-(4-((3-endo)-3-hydroxy-8-azabicyclo[3.2.1]octane-8-carbonyl)phenylamino)pyrimidin-4-yl)-1H-pyrazol-1-yl)propanenitrile]
N#CCC(C1CC1)n1cc(-c2ccnc(Nc3ccc(C(=O)N4CCCC4)cc3)n2)cn1 (racemic) [Example 253, 3-cyclopropyl-3-(4-(2-(4-(pyrrolidine-1-carbonyl)phenylamino)pyrimidin-4-yl)-1H-pyrazol-1-yl)propanenitrile]
N#CCC(C1CC1)n1cc(-c2ccnc(Nc3ccc(C(=O)NC4CCOCC4)cc3)n2)cn1 (racemic) [Example 254, 4-(4-(1-(2-cyano-1-cyclopropylethyl)-1H-pyrazol-4-yl)pyrimidin-2-ylamino)-N-(tetrahydro-2H-pyran-4-yl)benzamide]
N#CCC(C1CC1)n1cc(-c2ccnc(Nc3ccc(C(=O)N4CCOCC4)cc3)n2)cn1 (racemic) [Example 260, 3-cyclopropyl-3-(4-(2-(4-(morpholine-4-carbonyl)phenylamino)pyrimidin-4-yl)-1H-pyrazol-1-yl)propanenitrile]
N#CCC(C1CC1)n1cc(-c2ccnc(Nc3ccc(C(=O)N4CCC4)cc3)n2)cn1 (racemic) [Example 261, 3-(4-(2-(4-(azetidine-1-carbonyl)phenylamino)pyrimidin-4-yl)-1H-pyrazol-1-yl)-3-cyclopropylpropanenitrile]
N#CCC(C1CC1)n1cc(-c2ccnc(Nc3ccc(C(=O)N4C5CC6CC4CC(C5)O6)cc3)n2)cn1 (racemic) [Example 262, 3-cyclopropyl-3-(4-(2-(4-(2-oxa-6-azatricyclo[3.3.1.1(3,7)]dec-6-ylcarbonyl)phenyl)aminopyrimidin-4-yl)-1H-pyrazol-1-yl)propanenitrile]
COC1CCN(C(=O)c2ccc(Nc3nccc(-c4cnn(C(CC#N)C5CC5)c4)n3)cc2)CC1 (racemic) [Example 263, 3-cyclopropyl-3-(4-(2-(4-(4-methoxypiperidine-1-carbonyl)phenylamino)pyrimidin-4-yl)-1H-pyrazol-1-yl)propanenitrile]
CN1CCN(C(=O)c2ccc(Nc3nccc(-c4cnn(C(CC#N)C5CC5)c4)n3)cc2)CC1 (racemic) [Example 267, 3-cyclopropyl-3-(4-(2-(4-(4-methylpiperazine-1-carbonyl)phenylamino)pyrimidin-4-yl)-1H-pyrazol-1-yl)propanenitrile]
CC(=O)N1CCN(C(=O)c2ccc(Nc3nccc(-c4cnn(C(CC#N)C5CC5)c4)n3)cc2)CC1 (racemic) [Example 269, 3-(4-(2-(4-(4-acetylpiperazine-1-carbonyl)phenylamino)pyrimidin-4-yl)-1H-pyrazol-1-yl)-3-cyclopropylpropanenitrile]
CCOC(=O)N1CCC(NC(=O)c2ccc(Nc3nccc(-c4cnn(C(CC#N)C5CC5)c4)n3)cc2)CC1 (racemic) [Example 272, Ethyl 4-(4-(4-(1-(2-cyano-1-cyclopropylethyl)-1H-pyrazol-4-yl)pyrimidin-2-ylamino)benzoyl)aminopiperidine-1-carboxylate]
CCS(=O)(=O)N1CC(CC#N)(n2cc(-c3ccnc(Nc4ccc(C(=O)N5CCC(N(C)C)C5)cc4)n3)cn2)C1 (racemic) [Example 282, 2-(3-(4-(2-(4-(3-(dimethylamino)pyrrolidine-1-carbonyl)phenylamino)pyrimidin-4-yl)-1H-pyrazol-1-yl)-1-(ethylsulfonyl)azetidin-3-yl)acetonitrile]
COc1cnc(Nc2ccc(C(=O)N3CCOCC3)cc2)nc1-c1cnn(C(CC#N)C2CCCC2)c1 (racemic) [Example 302, 3-cyclopentyl-3-(4-(5-methoxy-2-(4-(morpholine-4-carbonyl)phenylamino)pyrimidin-4-yl)-1H-pyrazol-1-yl)propanenitrile]
